Active and inactive are the calls of the source.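 How the source made its calls: active means a tumour-causing dose and a tumour site recorded for mice in at least one sex group; inconclusive means only government mouse studies exist and were judged inadequate; inactive means mouse studies exist but none gave tumours.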
System: mouse carcinogenicity bioassay, TD50 from CPDB
Assay: DSSTox (CPDBAS) Carcinogenic Potency Database Summary Mouse Bioassay Results
Conditions: TD50_Mouse_Note: no positive results; TargetSites_Mouse_Female: no positive results
Outline: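 Chronic long-term mouse cancer bioassays from literature and NCI/NTP, compiled per sex. TD50 is the standardized carcinogenic potency, using the most positive experiment per sex-species; target sites follow author opinion.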

| Structure (SMILES) | outcome |
| --- | --- |
| OC(Cn1cncn1)(Cn1cncn1)c1ccc(F)cc1F | inactive; no positive results |
| CC(Oc1cc(Cl)ccc1Cl)C(=O)O (stereo not drawn) | inactive; no positive results |
| Cn1cc(OCC(O)CNC(C)(C)C)c2ccccc2c1=O (stereo not drawn) | inactive; no positive results |
| CC(=O)[O][Sn]([c]1ccccc1)([c]1ccccc1)[c]1ccccc1 | inactive; no positive results |
| CC(=O)c1ccc(S(=O)(=O)NC(=O)NC2CCCCC2)cc1 | inactive; no positive results |
| Oc1ccc(Cl)cc1Cl | inactive; no positive results |
| O=CCCCC=O | inactive; no positive results |
| COc1c2occc2cc2ccc(=O)oc12 | inactive; no positive results |
| CCN(CC)C(=S)[S-].CCN(CC)C(=S)[S-].[Zn+2] | inactive; no positive results |
| [O-][Cl+]O | inactive; no positive results |
| N#CC(c1ccccc1)c1ccccc1 | inactive; no positive results |
| O=CCBr | inactive; no positive results |
| O=[N+]([O-])c1ccc(Nc2ccc(Nc3ccccc3)c(S(=O)(=O)O)c2)c([N+](=O)[O-])c1 | inactive; no positive results |
| O=C(O)CC[N+](=O)[O-] | inactive; no positive results |
| O=C(O)Cc1c[nH]c2ccccc12 | inactive; no positive results |
| O=C(NCC1CCCCN1)c1cc(OCC(F)(F)F)ccc1OCC(F)(F)F (stereo not drawn) | inactive; no positive results |
| CCC(Br)(CC)C(=O)NC(N)=O | inactive; no positive results |
| ClC1=C(Cl)[C@]2(Cl)[C@@H]3[C@H]4C[C@H]([C@@H]5O[C@H]45)[C@@H]3[C@@]1(Cl)C2(Cl)Cl | inactive; no positive results |

| Structure (SMILES) | outcome |
| --- | --- |
| CCN(Cc1cccc(S(=O)(=O)O)c1)c1ccc(C(=C2C=CC(=[N+](CC)Cc3cccc(S(=O)(=O)[O-])c3)C=C2)c2ccccc2)cc1 | inactive; no positive results |
| CN(N=O)C1=Nc2ccc(Cl)cc2C(c2ccccc2)=[N+]([O-])C1 | inactive; no positive results |
| COc1ccc(C(c2ccc(OC)cc2)C(Cl)(Cl)Cl)cc1 | inactive; no positive results |
| CNC(=O)Oc1cccc2c1OC(C)(C)C2 | inactive; no positive results |
| C=C(C)C | inactive; no positive results |
| Nc1ccc([N+](=O)[O-])cc1 | inactive; no positive results |
| CC(=O)[O][Hg][c]1ccccc1 | inactive; no positive results |
| NCCCCCCCCCCC(=O)O | inactive; no positive results |
| c1ccc(Nc2ccc(Nc3ccccc3)cc2)cc1 | inactive; no positive results |
| ClCC1CO1 (stereo not drawn) | inactive |
| O=C(O)c1ccccc1 | inactive; no positive results |
| COc1ccc2nc(S(=O)Cc3ncc(C)c(OC)c3C)[nH]c2c1 (stereo not drawn) | inactive; no positive results |
| COc1ccc([C@@H]2CC(=O)c3c(O)cc(O[C@@H]4O[C@H](CO[C@@H]5O[C@@H](C)[C@H](O)[C@@H](O)[C@H]5O)[C@@H](O)[C@H](O)[C@H]4O)cc3O2)cc1OC | inactive; no positive results |
| O=S(=O)(Oc1ccc(Cl)cc1)c1ccc(Cl)cc1 | inactive; no positive results |
| CC(=O)NNC(C)=O | inactive; no positive results |
| O=C1CCCCC1 | inactive; no positive results |
| CCC(=O)C(CC(C)N(C)C)(c1ccccc1)c1ccccc1 (stereo not drawn) | inactive; no positive results |
| Nc1ccc(NC(=O)c2ccc(N)cc2)cc1 | inactive; no positive results |

Same assay, conditions: TD50_Mouse_Note: positive test results only by intraperitoneal or intravenous injection; TD50 is harmonic mean of more than one positive; TargetSites_Mouse_Female: hematopoietic system; lung

| Structure (SMILES) | Potency [mmol/kg/day] |
| --- | --- |
| O=P1(N(CCCl)CCCl)NCCCO1 (stereo not drawn) | 0.0228 |

Same assay, conditions: TD50_Mouse_Note: positive test results only by intraperitoneal or intravenous injection; TD50 is harmonic mean of more than one positive; TargetSites_Mouse_Female: hematopoietic system; lung; nervous system; uterus

| Structure (SMILES) | Potency [mmol/kg/day] |
| --- | --- |
| CNNCc1ccc(C(=O)NC(C)C)cc1 | 0.00216 |

Same assay, conditions: TD50_Mouse_Note: positive test results only by intraperitoneal or intravenous injection; TargetSites_Mouse_Female: hematopoietic system

| Structure (SMILES) | Potency [mmol/kg/day] |
| --- | --- |
| CC(CN1CC(=O)NC(=O)C1)N1CC(=O)NC(=O)C1 (stereo not drawn) | 0.0883 |

Same assay, conditions: TargetSites_Mouse_BothSexes: no positive results

| Structure (SMILES) | outcome |
| --- | --- |
| O=S(=O)([O-])[O-].O=S(=O)([O-])[O-].[Zr+4] | inactive |

Same assay, conditions: TargetSites_Mouse_Female: liver

| Structure (SMILES) | Potency [mmol/kg/day] |
| --- | --- |
| Cc1ccc(N)cc1N | 0.219 |
| NC(=O)Cc1c([O-])on[n+]1Cc1ccccc1 | 0.0437 |
| COC(C)(C)C | 74.3 |
| Nc1cc(Cl)cc(C(=O)O)c1Cl | 25.4 |
| C1CCOC1 | 18 |

Same assay, conditions: TargetSites_Mouse_Female: no positive results

| Structure (SMILES) | Potency [mmol/kg/day] |
| --- | --- |
| [O-][Br+2]([O-])O | 0.322 |

Same assay, conditions: TargetSites_Mouse_Female: thyroid gland

| Structure (SMILES) | Potency [mmol/kg/day] |
| --- | --- |
| CC(C)(C)O | 295 |

Same assay, conditions: TargetSites_Mouse_Female: vascular system

| Structure (SMILES) | Potency [mmol/kg/day] |
| --- | --- |
| Cc1c2ccccc2c(C)c2c1ccc1ccccc12 | 0.000328 |

Source: PubChem BioAssay AID1199 (EPA DSSTox, 2008)
